According to article PMC10416764, “Crystal structure of Prp16 in complex with ADP” (Acta Crystallographica. Section F, Structural Biology …, 2023):

Molecular target: T1, ctPrp16 (302-920) (Thermochaetoides thermophila, UniProt G0S0F9)
T1 construct: gene CTHT_0009880; residues 302-920 (RecA1, RecA2, WH, HB, OB-fold); N- and C-terminally truncated; codon-optimized gene, E. coli Rosetta2 (DE3), pGEX-6P-3, GST tag cleaved by PreScission; one molecule per asymmetric unit
T1 sequence (G0S0F9 301-920 limits assumed): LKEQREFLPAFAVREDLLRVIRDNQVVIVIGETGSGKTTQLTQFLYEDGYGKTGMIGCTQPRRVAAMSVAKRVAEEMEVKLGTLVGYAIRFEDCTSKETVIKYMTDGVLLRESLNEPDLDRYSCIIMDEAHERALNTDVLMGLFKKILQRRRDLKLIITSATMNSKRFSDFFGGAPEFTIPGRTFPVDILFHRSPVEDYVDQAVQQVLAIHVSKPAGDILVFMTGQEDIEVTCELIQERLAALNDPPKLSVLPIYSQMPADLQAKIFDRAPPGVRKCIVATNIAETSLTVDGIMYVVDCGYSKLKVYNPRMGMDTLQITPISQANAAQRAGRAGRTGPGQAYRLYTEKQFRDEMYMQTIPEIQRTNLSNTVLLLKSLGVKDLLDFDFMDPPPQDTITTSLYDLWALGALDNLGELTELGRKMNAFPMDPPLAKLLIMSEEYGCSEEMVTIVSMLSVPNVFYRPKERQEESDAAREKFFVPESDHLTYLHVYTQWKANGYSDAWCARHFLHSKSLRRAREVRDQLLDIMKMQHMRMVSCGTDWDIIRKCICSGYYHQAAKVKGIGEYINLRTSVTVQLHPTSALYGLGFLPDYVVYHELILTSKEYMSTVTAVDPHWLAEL
Experiment: X-ray crystallography, […] A, co-crystallization
Type: binding
Conditions: Mg2+ bound; MES pH 6.5; 293 K; tenfold molar excess of ADP; nucleotide site between RecA1 and RecA2

Nc1ncnc2c1ncn2[C@@H]1O[C@H](COP(=O)(O)OP(=O)(O)O)[C@@H](O)[C@H]1O [ADP]
X-ray crystallography, 1.9 A, co-crystallization: The polder omit map clearly reveals the presence of ADP and a magnesium ion
